Results from patent US20030232765A1, “Aryl urea compounds in combination with other cytostatic or cytotoxic agents for treating human cancers” (BAYER CORPORATION, priority 2001, published 2003).
Structures can show the parent of a compound that is named as a salt. Where two headings read alike, the source gives them in different places.

Assays:
[1] = Tolerability (body weight, mortality) in MiaPaCa-2 tumor-bearing mice (Example 2); assay type: in vivo; conditions: Gemzar 120 mg/kg/dose i.p. q4d×3; Compound A p.o. qd×9 (40 mg/kg/dose, 80 mg/kg dose level); alone or concurrent
Description: (§1) Mice received food and water ad libitum.
(§2) These schedules are termed ‘Concurrent Therapy’.

[2] = tested on: MiaPaCa-2 human pancreatic tumor xenografts; assay: Tumor xenograft experiment, established s.c. MiaPaCa-2 tumors, anti-tumor efficacy (Example 2); assay type: in vivo; conditions: Gemzar 120 mg/kg/dose i.p. q4d×3
Description: as §1, §2

[3] = tested on: A549 human non-small cell lung tumor xenografts; assay: Tumor xenograft experiment, established A549 tumors, anti-tumor efficacy (Example 5); assay type: in vivo; conditions: Iressa 150 mg/kg/dose p.o. qd×9, Compound A 80 mg/kg/dose p.o. qd×9; for percent tumor growth suppression (% TGS): alone or combined, endpoint time to one mass doubling
Protocol: (§3) The NCI-H460 cells were maintained and passaged in vitro using DMEM (GIBCO cat. # 11995-065: 500 mls) supplemented with 10% heat inactivated fetal bovine serum (JRH Biosciences cat.# 12106-500M), 2 mM L-glutamine (GIBCO cat. # 25030-81), 10 mM HEPES buffer (GIBCO cat # 15630-080) and penicillin-streptomycin (GIBCO cat. # 15140-122: 5 mls/[…]). The A549 cells were maintained and passaged using RPMI 1640 media (GIBCO cat.# 11875-085: 1000 ml) supplemented with 10% heat-inactivated fetal bovine serum (JRH Biosciences cat.# 12106-500M). All cells were maintained at 37° C. and 5% CO2 in a Fisher Scientific 610 CO2 incubator.
as §2

[4] = Iressa 150 mg/kg/dose p.o. qd×9; Compound A 80 mg/kg/dose p.o. qd×9; alone or combined; 10 mice per group
Description: as §2

[5] = tested on: MX-1 mammary tumor xenografts; assay: Tumor xenograft experiment, established MX-1 tumors, anti-tumor efficacy (Example 4); conditions: DOX 4 mg/kg/dose i.v. q4d×3; Compound A 40 mg/kg/dose p.o. qd×9; alone or combined; endpoint time to four mass doublings
Description: The DLD-1 human colon carcinoma and the MiaPaCa-2 human pancreatic carcinoma were obtained from the American Type Tissue Culture Collection Repository. The MX-1 human mammary tumor was obtained from the NCI tumor repository. Tumors were maintained as a serial in vivo passage of s.c. fragments (3×3 mm) implanted in the flank using a 12 gauge trocar. A new generation of the passage was initiated every three or four weeks.
Female mice were implanted s.c. with DLD-1, MX-1 or Mia-PaCa-2 tumor fragments from an in vivo passage. […] The general health of mice was monitored and mortality was recorded daily. Tumor dimensions and body weights were recorded twice a week starting with the first day of treatment. […]
Tumor weights were calculated using the equation (l×w^2)/2, where l and w refer to the larger and smaller dimensions collected at each measurement. […] Anti-tumor efficacy was measured as the incidence of complete regressions (CR) defined as tumors that are reduced to below the limit of measurement (3 mm) in both length and width, partial regressions (PR) defined as tumors that are reduced by more than 50% but less than 100% of their initial size, and percent tumor growth suppression (% TGS). […]

[6] = Camptosar 40 mg/kg/dose i.p. q4d×3, Compound A 80 mg/kg/dose p.o. qd×9
Description: (§4) Ncr nu/nu female mice (Taconic Farms, Germantown, N.Y.) were used for all in vivo studies invovling the DLD-1 and NCI-H460 tumor models. Female CB-17 SCID nice (Taconic Farms, Germantown, N.Y.) were used for studies involving the Mia-PaCa-2 tumor model. The mice were housed and maintained within the Comparative Medicine Department at Bayer Corporation, West Haven, Conn. in accordance with Bayer IACUC, State, and Federal guidelines for the humane treatment and care of laboratory animals. Mice received food and water ad libitum.
as §2
In the first study, Camptosar® was administered i.p at 40 mg/kg/dose.

[7] = tested on: DLD-1 human colon tumor xenografts; assay: Tumor xenograft experiment, established s.c. DLD-1 tumors, anti-tumor efficacy (Example 1); assay type: in vivo; conditions: Camptosar 40 mg/kg/dose i.p. q4d×3, Compound A 80 mg/kg/dose p.o. qd×9
Description: as §1, §2

[8] = tested on: NCI-H460 human non-small cell lung tumor xenografts; assay: Tumor xenograft experiment, established s.c. NCI-H460 tumors, anti-tumor efficacy (Example 3); assay type: in vivo; conditions: Ncr nu/nu mice; Navelbine 6.7 mg/kg/dose i.v. q4d×3; Compound A 40 mg/kg/dose p.o. qd×9; alone or combined; endpoint time to three mass doublings
Description: as §4, §3, §2

[9] = in vivo; conditions: female, Ncr nu/nu, mouse, iv, 6.7 mg/kg/dose
Description: as §4, §2

Nc1ccn([C@@H]2O[C@H](CO)[C@@H](O)C2(F)F)c(=O)n1 [Gemzar, Gemcitabine HCI]
lethality [1]: no lethality | percent tumor growth suppression (% TGS) ([2]; CB-17 SCID mice, Compound A 40 mg/kg/dose p.o. qd×9, alone or concurrent, endpoint time to two mass doublings): 154% | incidence of complete regressions (CR) ([2]; 10 mice per group): no complete or partial tumor regressions | incidence of partial regressions (PR) ([2]; Compound A 40 mg/kg/dose p.o. qd×9, 10 mice per group): no complete or partial tumor regressions

COc1cc2ncnc(Nc3ccc(F)c(Cl)c3)c2cc1OCCCN1CCOCC1 [Iressa, 4-(3-chloro-4-fluoroanilino)7-methoxy-6-(3-morpholinopropoxy)quinazoline]
incidence of partial regressions (PR) ([3]; 10 mice per group): 1 | percent tumor growth suppression (% TGS) [3]: 101% | lethality [4]: no lethality

CNC(=O)c1cc(Oc2ccc(NC(=O)Nc3ccc(Cl)c(C(F)(F)F)c3)cc2)ccn1 [Compound A, N-(4-chloro-3-(trifluoromethyl)phenyl)-N′-(4-(2-(N-methylcarbamoyl)-4-pyridyloxy)phenyl)urea]
percent tumor growth suppression (% TGS) [5]: 46% | incidence of complete regressions (CR) ([3]; 10 mice per group): 1 | incidence of partial regressions (PR) ([3]; 10 mice per group): 2 | percent tumor growth suppression (% TGS) [3]: 218% | lethality [4]: no weight loss or lethality | lethality [1]: no lethality | lethality ([6]; alone or concurrent): no lethality

COc1cccc2c1C(=O)c1c(O)c3c(c(O)c1C2=O)C[C@@](O)(C(=O)CO)C[C@@H]3O[C@H]1C[C@H](N)[C@H](O)[C@H](C)O1 [DOX, Doxorubicin HCl]
percent tumor growth suppression (% TGS) [5]: 43%

CCc1c2c(nc3ccc(OC(=O)N4CCC(N5CCCCC5)CC4)cc13)-c1cc3c(c(=O)n1C2)COC(=O)[C@]3(O)CC [Camptosar, Irinotecan]
incidence of complete regressions (CR) ([7]; 10 mice per group): no complete or partial tumor regressions | incidence of partial regressions (PR) ([7]; 10 mice per group): no complete or partial tumor regressions | percent tumor growth suppression (% TGS) ([7]; Ncr nu/nu mice, alone or concurrent, endpoint time to three mass doublings): 71% | lethality ([6]; alone or concurrent): no lethality | weight loss ([6]; alone or concurrent): minimal weight loss | tolerability ([6]; single agents): well tolerated

CCC1=C[C@@H]2CN(C1)Cc1c([nH]c3ccccc13)[C@@](C(=O)OC)(c1cc3c(cc1OC)N(C)[C@H]1[C@@](O)(C(=O)OC)[C@H](OC(C)=O)[C@]4(CC)C=CCN5CC[C@]31[C@@H]54)C2 [Navelbine, 3′,4′-didehydro-4′deoxy-C-norvincaleukoblastine [R—(R,R)-2,3-dihydroxybutanedioate (1:2)(salt)]]
percent tumor growth suppression (% TGS) [8]: 32% | MTD at 9 days [9]: ~6.7 mg/kg
